Measurements as given in patent publication US9428533B2, “Inhibitors of advanced glycation end products” (NephroGenex, Inc., priority 2006, dated 2016).

Experiments:
[1] = Redox metal ion binding affinity, visible spectroscopic titration (Cu2+); conditions: visible spectroscopy, physiological pH; read-out: Cu^2+ Kd
Description: (§1) The AGE inhibition by these types of compounds is believed to occur when the compounds interfere with the role of the required redox metal ions in the oxidative breakdown of the Amadori intermediates to advanced glycation end products (“glycoxidation”). […] These spectral titrations usually involve adding varying amounts of compound to a fixed amount of metal ion in a suitable buffer having low metal ion affinity under physiological pH conditions. In cases of extreme affinity, binding constants were estimated in a competitive assay mode.
(§2) Binding affinity is measured as the dissociation constants Kd (units of concentration). All measurements were done by visible spectroscopy by monitoring the spectrum of the complex formed by each compound near its wavelength maximum, which depends on the metal ion being studied.

RNase-Amadori = assay: Post-Amadori AGE/CML ELISA inhibition assay; assay type: biochemical; conditions: for IC50: 20 hours at 37° C.
Description: Using a novel modification of the AGE Inhibition assay, we have determined the post-Amadori AGE inhibition potency for compounds of interest. The experiments were designed to determine the half-maximal inhibitory concentration of compounds (“IC50 values”) for inhibiting the conversion of Amadori intermediates to advanced glycation end products. The post Amadori AGE/CML ELISA assay has been developed to a 384 well format for rapidly testing potential inhibitors prepared from DMSO stocks. Assay signal to background ratios are high, at greater than 20:1. Results in this format for AGE inhibitors agree well with previous data, providing some measure of method validation, making the assay is robust and reliable. Compounds for testing were dissolved at 100 mM or their maximum concentration in 100% DMSO. […] A subset of compounds were not fully soluble in DMSO at concentrations as low as 10 mM. […] When necessary, the activity of compounds was subsequently confirmed in a more thorough repeat test against AGE formation from both RNase Amadori and BSA Amadori. Typically, from DMSO stocks, two stock plates were made. Each well contained 50 μL.
The stock plate #2 was then frozen at −20° C. during preparation. Later, stock plate #2 was removed from the freezer and allowed to thaw for 30 minutes. The compounds in the plate were then mixed repeatedly with a pipettor and diluted 5× into 0.01 N HCl in H2O.
Further dilutions were then carried out spanning two orders of magnitude of concentration. After the compounds were diluted, 10 ul of phosphate buffer was added to each well and mixed to neutralize the solution before protein addition. Next 15 μL of 0.333 mg/mL of RNase-Amadori in phosphate buffer was added from a stock of ribose-RNAse prepared at 10.7 mg/mL. These constitute the AGE reaction mixtures. All AGE reactions proceeded for 20 hours at 37° C. Reactions were then diluted 50 fold into coating buffer by 10× then 5× serial dilution. Coating proceeded at 37° C. for two hours. Final protein was 0.1 μg/well in 384 well plates (2 μg/mL). ELISA was carried out similarly to before using the primary antibody BST-3CK at 1:10000 dilution, and the secondary antibody labeled with DELPHIA Europium GAR at 1:4000 dilution.

[2] = Drug exposure in plasma of STZ rats at sacrifice; assay type: in vivo; conditions: lowest two doses
Method: A determination of drug exposure was also made from plasma collected from STZ rats at sacrifice that were dosed at the lowest two doses. […] The detection of parent drugs and metabolites in the STZ rat, as in the mice plasma, confirms that sufficient exposure to the drug occurred in the studies so as to make the toxicity findings and in vivo efficacy reflective of drug administration.

[3] = In vivo plasma concentration and metabolites (HPLC fluorescence, LC-MS/MS); conditions: for metabolites in plasma: mice plasma
Method: The plasma drawn from the mice in the above MTD study was examined by an HPLC fluorescence method for the presence of parent drug at different times as well as for the possible presence of metabolites. […] An HPLC fluorescence method was developed to assay for parent drugs and possible metabolites of each drug. The HPLC method was further adapted for LC-MS/MS study by changing from phosphoric acid to volatile 20 mM ammonium acetate.
Possible structures for the metabolites include the following: […]

male mice = conditions: mouse, in vivo, po
Method: A seven day repeat oral gavage study was carried out in male mice in order to detect any obvious signs of clinical toxicity upon administration of BST-605. For comparison, two groups were dosed with BST-4997 and BST-146 (acetyl ester of BST-4997 that is rapidly hydrolyzed to parent BST-4997). Dosing was done daily at 10, 30 and 100 mg/kg/day, and blood draws were taken at the end of study at 1, 2, 4 and 8 h post-dosing.

[4] = Redox metal ion binding affinity, visible spectroscopic titration (Fe3+); conditions: visible spectroscopy, 480 nm (430 nm for pyridoxamine); read-out: Fe^3+ Kd
Description: as §1, §2

HepG2 cells = assay: Cell based toxicity assay (MTT); conditions: fixed concentration 1 mM
Description: Hepatotoxicity is one of the major causes of drug failure in the clinic. HepG2 cells are human cells derived from a liver tumor, and express many of the proteins and detoxification pathways of normal hepatocytes, and so make a reasonable model for initial cellular toxicity testing of candidate compounds. The test is based on the active conversion of 3-[4,5-dimethylthiazol-2-yl]-2,5-dephenyltetrazolium bromide (MTT) by mitochondrial oxidation-reduction reactions into blue formazan crystals. Decreased crystal formation corresponds to decreased cell viability. Azide and chlorpromazine served as a positive controls
10×MTT stock solution (5 mg/ml MTT in 0.9% NaCl)
0.04 N HCl in isopropanol
Compound stocks: 100 mM in 100% DMSO
MTT working solution: diluting 10×MTT stock into culture medium.
Test article in cell culture medium; Final DMSO concentration on the cells varies with the compound concentration (Final concentration of solvents such as DMSO should be kept at or below 1%)
• 1. Aspirate culture medium from HepG2 cells. Replace culture medium with test article dissolved in culture medium. • 2. Incubate in 37° C., 5% CO2 incubator for 16-24 hours. • 3. Aspirate the medium from the cells; replace with an equal volume of 37° C. MTT working solution. • 4. Incubate for 3 hours. • 5. Replace MTT solution with an equal volume of acidified isopropanol. • 6. […] Read the absorbance of the solution at 570 nm. […]

[5] = Redox metal ion binding affinity, visible spectroscopic titration (Fe2+); conditions: visible spectroscopy, 480 nm (430 nm for pyridoxamine); read-out: Fe^2+ Kd
Description: as §1, §2

[6] = tested on: streptozotocin (STZ)-diabetic rats; assay: Efficacy study in STZ rat model of diabetic neuropathy (nerve conduction velocity); assay type: in vivo
Method: The STZ rat model has been described previously in WO 2004/019889. Our aim was to ascertain whether BST-605 treatment could correct nerve dysfunction in streptozotocin (STZ)-diabetic rats. Animals were made diabetic for 6 weeks, following which they were treated (n=6) for 2 weeks with BST-605 given in the drinking water at concentrations adjusted to correspond to doses of 0.22, 0.67 and 2.0 mg/kg/day. They were compared to control non-diabetic rats (n=10).
Motor NCV was tested between the sciatic notch and knee for the nerve branch to tibialis anterior muscle, as described in Cameron et al., Q. J. Exp. Physiol. 74:917-926 (1989); and Cameron et al, Exp. Neurol. 92:757-761 (1986).
Saphenous sensory NCV was measured between the groin and ankle.

STZ rats = assay: Tissue staining for carboxymethyllysine (CML) AGEs in nerve vasculature; assay type: in vivo; conditions: compared to diabetic controls
Description: This was done by quantitative measurements of tissue staining for carboxymethyllysine (CML) AGEs, using anti-CML antibodies.

[7] = STZ rats, 2 weeks in drinking water, 0.22, 0.67 and 2.0 mg/kg/day

SMILES	Kd [1]	Potency Relative to BST-4997 (RNase-Amadori)	potency over BST-4997 (RNase-Amadori)	potency over pyridoxamine (RNase-Amadori)	IC50 (RNase-Amadori)	drug exposure in plasma [2]	metabolites in plasma [3]	plasma concentration of parent drug versus dose ([3]; mice, plasma 1, 2, 4 and 8 h post-dosing, 10, 30 and 100 mg/kg/day)	clinical toxicity in MTD study (male mice)	Kd [4]	acute toxicity in HepG2 cell viability (MTT) (HepG2 cells)	Kd [5]	diabetic complications in STZ rat model ([6]; STZ rat model)	restoration of nerve conduction velocity in motor (sciatic nerve) neurons [6, 7]	restoration of nerve conduction velocity in sensory (saphenous) neurons [6, 7]	AGE (CML) staining in the nerve vasculature (STZ rats)
Cc1ncc(CN2CCN(C)CC2)c(-c2ncc[nH]2)c1O [BST-605]	0.13 µM	6	6 fold	50 fold	100 µM	Drug exposure was observed and measured	oxidized and/or undergone glucuronidation	proportional to dose	no adverse clinical signs or gross examination findings	520 µM	no acute toxicity	720 µM	ameliorates diabetic complications	efficacy at very low concentrations	efficacy at very low concentrations	
Cc1ncc(CO)c(-c2ncc[nH]2)c1O [BST-4997, reference compound]	1.13 µM	(1)			600 µM		oxidized and/or undergone glucuronidation		significant toxicity at and above 30 mg/kg/day	610 µM	some evidence of toxicity	690 µM				significant decrease in AGE staining
Cc1ncc(CO)c(CN)c1O [Pyridoxamine, pyridoxamine, reference compound]					5000 µM											
